Square brackets hold non-standard residues; d marks the D form. Ends that are not written are not given here. Peptide text beside a SMILES is read from it.
Legend:
[1] = In vitro plasma stability assay; assay type: in vitro ADME, ICR mice; details: 10 μM peptide, 37° C.; for stability in plasma over time: mouse plasma, 0 to 90 min, LC-MS
Experimental: FIG. 1 is a graph showing the results of measuring quantitative changes of alloferon L-type and alloferon D-type peptides by mass spectrometry to investigate their degradation in plasma from mice, where 10 µM of each alloferon peptide was treated in isolated plasma and were incubated at 37° C. for 0, 10, 30, 60, and 90 min.
As the present inventors believed that the mechanism of action of alloferon peptides is through endocytosis via multi-ligand receptors rather than physiological activity and that zinc-binding capacity is an important mechanism, they investigated the blood stability of the D-type alloferon of Example 1-2 in which all amino acids except glycine have been replaced with D-type amino acids and the L-type alloferon of Example 1-1. An in vitro plasma stability assay was performed to compare the stability of the L-type peptide and the D-type peptide of alloferon in the plasma of mice. For this purpose, 500 to 600 μl of blood was obtained from ICR mice by orbital blood sampling, which was subsequently centrifuged at 2000×g for 20 min at 4° C. using a centrifuge, and the supernatant was collected to obtain plasma. After adding 10 μM of the alloferon L-type and D-type peptides to 100 μl of the plasma, the plasma was incubated at 37° C. for 0, 5, 10, 30, 60, and 90 min. Then, 500 μl of cold methanol was added to precipitate the protein, and the protein was lyophilized and subjected to liquid chromatography and protein mass spectrometry.

[2] = tested on: GFP-mHttQ74 aggregates in HEK293T cell line; experiment: Mutant huntingtin protein aggregates after overexpression, Western blot; assay type: cell-based; details: peptide 30 μM with 100 nM bafilomycin A1, 18 h, HEK293T; FIG. 6
Experimental: (§1) FIG. 6 is a result of Western blot analysis of the level of mutant huntingtin protein expression in protein samples obtained 18 h after treatment of HEK293T cells transfected to express mutant huntingtin protein with 100 nM bafilomycin A1 alone or in combination with 30 μM of some variant alloferon peptides according to one embodiment of the present invention, for investigating the degradation of mutant huntingtin protein aggregates by treatment with some variant alloferon peptides (DALS1, DAL-VS_V(−Q), DAL1, and DALV2) according to one embodiment of the present invention.
(§2) The present inventors then investigated whether some of the variant peptides (DALS1, DALVS_V, DAL1, DALV2) comprising the amino acid sequences designated as SEQ ID NO: 3 through 16 could resolve SOD1 aggregates that formed after transient transfection of SOD1 protein into the 293T cell line. To this end, EGFP-SOD1 G93A DNA was transiently transfected into the HEK293T cell line using Lipofectamine 2000. After transfection, the cell lines were incubated in a cell culture machine at 37° C. and 5% CO2 for 30 h, and the culture medium was replaced with Minimum Essential Medium (MEM, Gibco, USA). Subsequently, the cells were pretreated with 100 nM bafilomycin for 30 min, which were then treated with μM variant alloferon peptide and incubated for 18 h. […] Then, it was subjected to protein quantification using BCA protein assay kit (Pierce Biotechnology, USA), and centrifuged at 17,000×g for 20 min, where the supernant was discarded and only the cell debris was taken to obtain protein. Subsequently, 5× sample buffer (300 mM Tris, pH 6.8, 10% SDS, 50% Glycerol, 0.1% BPB, 2.5% Mercaptoethanol, 100 mM DTT) was mixed with the quantified sample, denatured at 95° C. for 5 min, and prepared for analysis. […] Protein signals were detected using enhanced chemiluminescence (INTRON Biotechnology, South Korea) and a bio-imaging system (MF-Chemibis, Shimadzu Scientific Korea Corporation, South Korea). […]

[3] = tested on: EGFP-α-synuclein A53T aggregates in HEK293T cell line; experiment: α-synuclein protein aggregates after overexpression, Western blot; assay type: cell-based; details: peptide with 100 nM bafilomycin A1, 18 h, HEK293T; FIG. 5
Experimental: as §1, with “FIG. 5” for “FIG. 6”, “of α-synuclein” for “of mutant huntingtin”, “express α-synuclein” for “express mutant huntingtin protein”, “30 µM” for “30 μM”
as §2

[4] = tested on: EGFP-SOD1 G93A aggregates in HEK293T cell line; experiment: SOD1 protein aggregates after SOD1 overexpression, Western blot; assay type: cell-based; details: peptide with 100 nM bafilomycin, 18 h, HEK293T; FIG. 3B
Experimental: as §1, with “FIG. 3A” for “FIG. 6”, “of SOD1” for “of mutant huntingtin”, “express SOD1” for “express mutant huntingtin protein”, “invention. FIG. 3B is a graph representing the results of quantifying relative expression of the SOD1 protein. In FIG. 3B, * indicates a significant difference compared to the treatment with bafilomycin alone (* p<0.05).” for “invention.”
The present inventors then investigated whether some of the variant peptides (DALS1, DALVS_V, DAL1, DALV2) comprising the amino acid sequences designated as SEQ ID NO: 3 through 16 could resolve SOD1 aggregates that formed after transient transfection of SOD1 protein into the 293T cell line. To this end, EGFP-SOD1 G93A DNA was transiently transfected into the HEK293T cell line using Lipofectamine 2000. After transfection, the cell lines were incubated in a cell culture machine at 37° C. and 5% CO2 for 30 h, and the culture medium was replaced with Minimum Essential Medium (MEM, Gibco, USA). Subsequently, the cells were pretreated with 100 nM bafilomycin for 30 min, which were then treated with μM variant alloferon peptide and incubated for 18 h. After that, proteinase inhibitors and phosphatase inhibitors (2 μg/ml aprotinin, 2 μg/ml leupeptin, 1 μg/ml pepstatin A, 1 mM phenyl-methylsulfonyl fluoride (PMSF), 1 mM Na3 VO4, 5 mM NaF and 10 mM Na4P2O7) were put into a 6-well culture dish at 200 μl per well to lyse the cells. The obtained cell lysate was first left at 30 min for 4° C. Then, it was subjected to protein quantification using BCA protein assay kit (Pierce Biotechnology, USA), and centrifuged at 17,000×g for 20 min, where the supernant was discarded and only the cell debris was taken to obtain protein. Subsequently, 5× sample buffer (300 mM Tris, pH 6.8, 10% SDS, 50% Glycerol, 0.1% BPB, 2.5% Mercaptoethanol, 100 mM DTT) was mixed with the quantified sample, denatured at 95° C. for 5 min, and prepared for analysis. Then, electrophoresis was performed using 8% to 15% SDS-polyacrylamide gel, and the proteins separated by their sizes were transferred to polyvinylidene difluoride (PVDF) membranes (Millipore, USA). The protein-transferred membranes were then blocked with 3% skim milk powder in TBST for 1 h. […] Protein signals were detected using enhanced chemiluminescence (INTRON Biotechnology, South Korea) and a bio-imaging system (MF-Chemibis, Shimadzu Scientific Korea Corporation, South Korea).

[5] = tested on: H4 cell lines (GL-H4) expressing GFP-linked LC3; experiment: Analysis of autophagic flow blocked by bafilomycin A-1 (LC3-GFP spots); assay type: cell-based; details: peptide 20 μM with Baf A1 100 nM, GL-H4 cells; FIGS. 2E and 2F
Experimental: FIGS. 2A to 2C are series of fluorescence micrographs of LC3-GFP spots 12 h after treating H4 cell line (GL-H4) that stably overexpresses GFP-LC3 protein with various variant alloferon peptides according to one embodiment of the present invention in combination with bafilomycin at a concentration of 20 μM, showing that autophagic flux blocked by bafilomycin A-1 is restored by the variant alloferon peptides according to one embodiment of the present invention. FIGS. 2D to 2F are graphs showing quantification of the fluorescence intensity of LC3-GFP spots 12 h after treatment of the GL-H4 cell line with the variant alloferon peptides according to one embodiment of the present invention in combination with bafilomycin at a concentration of 20 μM.
H4 cell line (GL-H4) and HEK293T cell line permanently transfected with GFP-LC3 plasmid were used in the present invention. The cell culture medium was Minimum Essential Medium (MEM, WellGene) supplemented with 10% fetal bovine serum (Hyclone, USA) and antibiotic and antifungal mixture (WellGene, Korea) and cultured in a cell culture machine at 37° C. and 5% CO2.
To investigate the effect of peptides comprising the amino acid sequences designated as SEQ ID NO: 3 to 16 on autophagic flow, the present inventors treated H4 cell lines (GL-H4) expressing GFP-linked LC3 with the peptides (20 μM) and/or the autophagic inhibitor Bafilomycin A-1 (Baf A1, 100 nM) to inhibit autophagy, and then the effect of the variant alloferon peptides according to one embodiment of the present invention was investigated by fluorescence microscopy analysis.

[6] = tested on: P-Tau S214, P-Tau T205, unphosphorylated tau, p62, LC3, β-amyloid (APP); experiment: Western blot of aggregate-forming proteins in cortex and hippocampus; assay type: in vivo; details: 5×FAD mice
Source text: The present inventors conducted a western blot analysis to investigate the expression of pathogenic aggregate-forming proteins in brain tissue, such as tau protein, p62, and LC3, other than β-amyloid from the results of Experimental examples 8-2 and 8-3 above.
Specifically, cortical and hippocampal tissues were obtained from experimental animals sacrificed after the behavioral experiments, and the tissues were lysed and subjected to Western blot analysis using antibodies that specifically bind to phosphorylated tau S214 (P-Tau S214), phosphorylated tau T205 (P-Tau T205), unphosphorylated tau, p62, LC3, and β-amyloid (APP), respectively.

## CC(C)[C@@H](NC(=O)CNC(=O)[C@H](N)Cc1c[nH]cn1)C(=O)N[C@H](CO)C(=O)NCC(=O)N[C@H](Cc1c[nH]cn1)C(=O)NCC(=O)N[C@H](CCC(N)=O)C(=O)N[C@H](Cc1c[nH]cn1)C(=O)NCC(=O)N[C@@H](C(=O)N[C@H](Cc1c[nH]cn1)C(=O)NCC(=O)O)C(C)C [DAL1] (H-[dH]G[dV][dS]G[dH]G[dQ][dH]G[dV][dH]G-OH; N-terminus and C-terminus assumed)
[1]
  stability in plasma over time: remained stable over time without degradation

## DALH1: variant alloferon peptide, SEQ ID NO: 8, HGvsGhGqhGvhG (capital L-type, lowercase D-type) (HG[dV][dS]G[dH]G[dQ][dH]G[dV][dH]G)
[2]
  mutant huntingtin protein aggregate dissociating ability compared to DAL1: better protein aggregate dissociating ability

## DALQ1: variant alloferon peptide, SEQ ID NO: 10, hGvsGhGQhGvhG (capital L-type, lowercase D-type) ([dH]G[dV][dS]G[dH]GQ[dH]G[dV][dH]G)
[3]
  α-synuclein protein aggregate dissociating ability compared to DAL-1: better protein aggregate dissociating ability

## DALS1: variant alloferon peptide, SEQ ID NO: 5, hGvSGhGqhGvhG (capital L-type, lowercase D-type) ([dH]G[dV]SG[dH]G[dQ][dH]G[dV][dH]G)
[4]
  SOD1 protein aggregate dissociating ability compared to DAL1: better protein aggregate dissociating ability
[5]
  autophagic scavenging activity compared to D-type alloferon peptide (DAL1): superior autophagic scavenging activity

## DALV1: variant alloferon peptide, SEQ ID NO: 7, hGVsGhGqhGvhG (capital L-type, lowercase D-type) ([dH]GV[dS]G[dH]G[dQ][dH]G[dV][dH]G)
[5]
  autophagic scavenging activity compared to D-type alloferon peptide (DAL1): superior autophagic scavenging activity

## DALV2: variant alloferon peptide, SEQ ID NO: 4, hGvsGhGqhGVhG (capital L-type, lowercase D-type) ([dH]G[dV][dS]G[dH]G[dQ][dH]GV[dH]G)
[2]
  mutant huntingtin protein aggregate dissociating ability compared to DAL1: better protein aggregate dissociating ability
[6]; Western blot of hippocampal sections
  amount of β-amyloid: significantly reduced
[6]; cortex and hippocampus, 20 mg/kg IP, 25 weeks
  expression of aggregate-forming proteins: significantly lower expression
[6]; cortical Western blot analysis
  protein aggregate dissociating ability compared to DAL1: better protein aggregate dissociating ability
[3]
  α-synuclein protein aggregate dissociating ability compared to DAL-1: better protein aggregate dissociating ability
[4]
  SOD1 protein aggregate dissociating ability compared to DAL1: better protein aggregate dissociating ability
[5]
  autophagic scavenging activity compared to D-type alloferon peptide (DAL1): superior autophagic scavenging activity

## DALVS: variant alloferon peptide, SEQ ID NO: 3, hGVSGhGqhGvhG (capital L-type, lowercase D-type) ([dH]GVSG[dH]G[dQ][dH]G[dV][dH]G)
[5]
  autophagic scavenging activity compared to D-type alloferon peptide (DAL1): superior autophagic scavenging activity

## DALVSQV
[5]
  autophagic scavenging activity compared to D-type alloferon peptide (DAL1): superior autophagic scavenging activity

## DALVS_V: variant alloferon peptide with glutamine removed, SEQ ID NO: 14, hGVSGhGhGVhG (capital L-type, lowercase D-type) ([dH]GVSG[dH]G[dH]GV[dH]G)
[4]
  SOD1 protein aggregate dissociating ability compared to DAL1: better protein aggregate dissociating ability
[5]
  autophagic scavenging activity compared to D-type alloferon peptide (DAL1): superior autophagic scavenging activity

## HGVSGHGQHGVHG [LAL]
[1]; FIG. 1, isolated mouse plasma, read-out: half-life (T1/2)
  half-life: 51.8 min
[1]
  stability in plasma over time: degraded early in plasma
